Measurements reported in patent US20250302799A1, “PHARMACEUTICAL COMPOSITION CONTAINING FRAXETIN FOR PREVENTION OR TREATMENT OF ENDOMETRIOSIS” (Research & Business Foundation Sungkyunkwan University, priority 2024, published 2025).

Test system: End1/E6E7 cells
Test: Intracellular calcium concentration (fluo-4 staining)
Format: cell-based, human
Method: To examine intracellular or mitochondrial calcium concentration changes in endometrial cells induced by fraxetin, the inventors conducted experiments using 3 μM fluo-4 acetoxymethyl ester (AM) (Invitrogen) and 3 μM rhod-2.
First, cells were cultured in 6-well plates, treated with fraxetin in a dose-dependent manner (0 μM, 5 μM, 10 μM, 20 μM, 50 μM, 100 μM), and incubated at 37° C. in a 5% CO2 incubator for 48 hours. The cells were then detached using trypsin, washed with PBS, and stained with 3 μM fluo-4 or 3 μM rhod-2 for 20 minutes at 37° C. in a 5% CO2 incubator. After staining, the cells were washed with PBS, transferred to FACS tubes, and analyzed by flow cytometry to measure intracellular or mitochondrial calcium concentrations.

COc1cc2ccc(=O)oc2c(O)c1O [fraxetin]
calcium levels (upregulated to): 180%
